Data published in ChEMBL document CHEMBL3045195, “Comparison of the activity of non-steroidal ecdysone agonists between dipteran and lepidopteran insects, using cell-based EcR reporter assays” (Pest Manag Sci, 2010).
The source made the active and inactive calls. The rule behind the calls is not given here.

What was measured:
Ecdysone receptor [1] = biological target: T1, Ecdysone receptor (Drosophila melanogaster, UniProt P20153+P34021); experiment: Agonist activity at ecdysone receptor in Drosophila melanogaster S2 cells after 24 hr by luciferase reporter gene assay; format: cell-based
T1 sequence (P34021 whole entry): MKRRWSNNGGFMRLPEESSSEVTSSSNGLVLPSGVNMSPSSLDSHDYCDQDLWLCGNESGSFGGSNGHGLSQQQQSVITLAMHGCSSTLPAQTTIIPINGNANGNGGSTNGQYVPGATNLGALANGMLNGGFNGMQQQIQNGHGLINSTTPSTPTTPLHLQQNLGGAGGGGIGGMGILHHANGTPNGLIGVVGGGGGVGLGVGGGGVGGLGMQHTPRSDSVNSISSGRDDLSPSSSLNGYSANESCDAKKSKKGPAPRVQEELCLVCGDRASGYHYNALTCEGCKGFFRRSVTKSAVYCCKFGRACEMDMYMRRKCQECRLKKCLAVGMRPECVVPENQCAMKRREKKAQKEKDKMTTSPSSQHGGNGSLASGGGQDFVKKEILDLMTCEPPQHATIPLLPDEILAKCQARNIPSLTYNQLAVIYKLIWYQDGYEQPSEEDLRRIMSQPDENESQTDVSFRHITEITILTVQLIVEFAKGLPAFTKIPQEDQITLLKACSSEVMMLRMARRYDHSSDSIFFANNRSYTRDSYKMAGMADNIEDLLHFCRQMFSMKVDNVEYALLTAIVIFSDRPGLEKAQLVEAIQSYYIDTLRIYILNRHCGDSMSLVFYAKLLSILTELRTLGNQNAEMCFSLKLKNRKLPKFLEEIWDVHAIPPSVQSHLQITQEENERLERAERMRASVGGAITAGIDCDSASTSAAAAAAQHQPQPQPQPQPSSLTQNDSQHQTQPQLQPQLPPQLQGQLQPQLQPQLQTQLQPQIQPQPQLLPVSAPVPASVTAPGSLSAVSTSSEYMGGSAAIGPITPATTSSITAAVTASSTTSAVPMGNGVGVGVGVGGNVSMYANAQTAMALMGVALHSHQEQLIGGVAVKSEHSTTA
T1 sequence (P20153 whole entry): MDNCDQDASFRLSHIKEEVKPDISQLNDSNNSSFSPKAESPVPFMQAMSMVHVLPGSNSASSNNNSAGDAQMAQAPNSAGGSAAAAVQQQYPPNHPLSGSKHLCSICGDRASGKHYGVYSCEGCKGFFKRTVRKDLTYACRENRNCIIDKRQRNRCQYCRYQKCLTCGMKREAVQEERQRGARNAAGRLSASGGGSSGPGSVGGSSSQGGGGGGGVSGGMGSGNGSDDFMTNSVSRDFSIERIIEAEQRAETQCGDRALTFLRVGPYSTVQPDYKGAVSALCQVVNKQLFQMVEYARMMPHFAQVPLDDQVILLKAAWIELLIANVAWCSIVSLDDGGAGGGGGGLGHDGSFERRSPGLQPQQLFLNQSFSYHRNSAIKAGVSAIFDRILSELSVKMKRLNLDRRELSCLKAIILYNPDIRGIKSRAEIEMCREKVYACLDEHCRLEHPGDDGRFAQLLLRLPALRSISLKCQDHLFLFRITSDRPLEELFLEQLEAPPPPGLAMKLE

[2] = biological target: T2, Ecdysone receptor (Drosophila melanogaster) (UniProt P34021+P20153); experiment: (§1) Agonist activity at ecdysone receptor in Drosophila melanogaster Kc cells after 24 hr by luciferase reporter gene assay
[3] = biological target: T2, Ecdysone receptor (Drosophila melanogaster); experiment: Agonist activity at ecdysone receptor in Drosophila melanogaster S2 cells at 100 uM after 24 hr by luciferase reporter gene assay relative to 20-hydroxyecdysone; format: cell-based
[4] = biological target: T2, Ecdysone receptor (Drosophila melanogaster); experiment: Agonist activity at ecdysone receptor in Drosophila melanogaster Kc cells at 100 uM after 24 hr by luciferase reporter gene assay relative to 20-hydroxyecdysone
Ecdysone receptor [5] = biological target: T3, Ecdysone receptor (Bombyx mori, UniProt P49881); experiment: (§2) Agonist activity at ecdysone receptor in Bombyx mori Bm5 cells after 24 hr by luciferase reporter gene assay; format: cell-based
T3 sequence (P49881 whole entry): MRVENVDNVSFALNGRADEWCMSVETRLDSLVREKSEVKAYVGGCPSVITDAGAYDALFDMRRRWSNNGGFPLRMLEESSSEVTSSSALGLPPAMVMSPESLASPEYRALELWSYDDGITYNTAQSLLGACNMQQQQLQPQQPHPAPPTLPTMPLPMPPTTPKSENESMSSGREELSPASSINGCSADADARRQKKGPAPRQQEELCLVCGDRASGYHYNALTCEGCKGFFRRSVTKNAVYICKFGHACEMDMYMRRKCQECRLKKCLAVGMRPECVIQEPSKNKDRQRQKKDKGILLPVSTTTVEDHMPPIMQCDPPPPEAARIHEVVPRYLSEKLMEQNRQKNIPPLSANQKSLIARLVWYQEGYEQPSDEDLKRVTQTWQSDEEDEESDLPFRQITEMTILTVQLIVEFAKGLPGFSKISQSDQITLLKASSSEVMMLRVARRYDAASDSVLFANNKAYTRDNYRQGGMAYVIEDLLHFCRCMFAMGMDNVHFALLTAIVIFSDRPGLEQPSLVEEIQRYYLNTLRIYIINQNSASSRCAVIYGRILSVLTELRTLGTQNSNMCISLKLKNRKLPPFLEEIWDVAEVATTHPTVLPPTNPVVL

Ecdysone receptor [6] = biological target: T4, Ecdysone receptor (Aedes aegypti, UniProt P49880+Q9GSG8); experiment: Agonist activity at Aedes aegypti ecdysone receptor expressed in mammalian cells by reporter gene assay; format: cell-based
T4 sequence (P49880 whole entry): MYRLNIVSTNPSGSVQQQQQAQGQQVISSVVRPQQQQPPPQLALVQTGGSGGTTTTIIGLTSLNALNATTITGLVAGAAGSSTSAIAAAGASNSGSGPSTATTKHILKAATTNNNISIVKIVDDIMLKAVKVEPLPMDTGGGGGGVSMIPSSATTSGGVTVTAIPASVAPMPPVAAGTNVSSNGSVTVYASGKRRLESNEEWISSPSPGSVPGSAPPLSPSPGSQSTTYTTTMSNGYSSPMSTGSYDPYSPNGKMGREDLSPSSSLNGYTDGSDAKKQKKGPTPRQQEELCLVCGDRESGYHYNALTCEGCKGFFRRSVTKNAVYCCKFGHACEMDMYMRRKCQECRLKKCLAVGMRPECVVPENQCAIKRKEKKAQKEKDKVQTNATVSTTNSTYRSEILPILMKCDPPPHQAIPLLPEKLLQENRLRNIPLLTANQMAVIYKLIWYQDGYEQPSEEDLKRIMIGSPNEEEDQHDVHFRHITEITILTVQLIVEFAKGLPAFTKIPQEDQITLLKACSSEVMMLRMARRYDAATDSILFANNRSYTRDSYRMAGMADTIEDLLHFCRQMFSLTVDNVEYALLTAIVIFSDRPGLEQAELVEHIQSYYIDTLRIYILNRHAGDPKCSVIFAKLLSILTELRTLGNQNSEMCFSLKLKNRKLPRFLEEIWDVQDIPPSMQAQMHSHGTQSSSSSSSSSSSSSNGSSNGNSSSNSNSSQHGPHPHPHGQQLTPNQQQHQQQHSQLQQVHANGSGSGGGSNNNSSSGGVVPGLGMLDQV
T4 sequence (Q9GSG8 whole entry): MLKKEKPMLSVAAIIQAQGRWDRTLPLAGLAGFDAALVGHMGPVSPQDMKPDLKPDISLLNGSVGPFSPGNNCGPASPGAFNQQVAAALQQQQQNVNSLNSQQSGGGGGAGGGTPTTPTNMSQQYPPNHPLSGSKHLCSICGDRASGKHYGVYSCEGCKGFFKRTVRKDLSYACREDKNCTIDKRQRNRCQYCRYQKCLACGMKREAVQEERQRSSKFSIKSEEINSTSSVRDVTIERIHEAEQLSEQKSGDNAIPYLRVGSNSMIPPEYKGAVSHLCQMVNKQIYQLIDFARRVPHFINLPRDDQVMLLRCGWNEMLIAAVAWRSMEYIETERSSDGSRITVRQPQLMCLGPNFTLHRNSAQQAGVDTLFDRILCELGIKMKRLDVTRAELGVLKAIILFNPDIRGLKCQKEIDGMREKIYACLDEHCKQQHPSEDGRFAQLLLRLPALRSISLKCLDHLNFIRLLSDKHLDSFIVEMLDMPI

[7] = biological target: Ecdysone receptor (Aedes aegypti) (UniProt P49880+Q9GSG8); experiment: Agonist activity at Aedes aegypti ecdysone receptor expressed in mammalian cells by reporter gene assay relative to control; format: cell-based
[8] = biological target: T2, Ecdysone receptor (Drosophila melanogaster); experiment: Agonist activity at ecdysone receptor in Drosophila melanogaster S2 cells at 10 uM after 24 hr by luciferase reporter gene assay relative to 20-hydroxyecdysone; format: cell-based
[9] = biological target: T5, Ecdysone receptor (Bombyx mori) (UniProt P49881); experiment: as §2; format: cell-based
T5 sequence (whole entry): T3 sequence (P49881 whole entry)

[10] = biological target: T2, Ecdysone receptor (Drosophila melanogaster); experiment: Agonist activity at ecdysone receptor in Drosophila melanogaster S2 cells at 1.33 uM after 24 hr by luciferase reporter gene assay relative to 20-hydroxyecdysone; format: cell-based
Ecdysone receptor [11] = biological target: T1, Ecdysone receptor; experiment: as §1
[12] = biological target: T2, Ecdysone receptor (Drosophila melanogaster); experiment: Agonist activity at ecdysone receptor in Drosophila melanogaster S2 cells at 50 uM after 24 hr by luciferase reporter gene assay relative to 20-hydroxyecdysone; format: cell-based
[13] = Cytotoxicity against Drosophila melanogaster S2 cells at 10 to 100 uM after 24 hr by CellTiter assay; format: cell-based; conditions: s2, 24 h
Ecdysone receptor [14] = biological target: T1, Ecdysone receptor; experiment: Agonist activity at ecdysone receptor in Drosophila melanogaster B2 cells assessed as reduction in cell density
[15] = biological target: T2, Ecdysone receptor (Drosophila melanogaster); experiment: Agonist activity at ecdysone receptor in Drosophila melanogaster Kc cells at 10 uM after 24 hr by luciferase reporter gene assay relative to 20-hydroxyecdysone
[16] = biological target: T2, Ecdysone receptor (Drosophila melanogaster); experiment: Agonist activity at ecdysone receptor in Drosophila melanogaster S2 cells at 5 uM after 24 hr by luciferase reporter gene assay relative to 20-hydroxyecdysone; format: cell-based
[17] = biological target: T2, Ecdysone receptor (Drosophila melanogaster); experiment: Agonist activity at ecdysone receptor in Drosophila melanogaster S2 cells treated with ouabain for 24 hr prior to compound addition measured after 24 hr by luciferase reporter gene assay; format: cell-based
[18] = biological target: T2, Ecdysone receptor (Drosophila melanogaster); experiment: Agonist activity at ecdysone receptor in Drosophila melanogaster S2 cells after 24 hr by luciferase reporter gene assay in presence of ouabain; format: cell-based

What does the source list for `Cc1ccc(C(=O)NN(C(=O)c2ccccc2Cl)C(C)(C)C)c(C)c1`?
EC50 (Ecdysone receptor [1]): 129 µM; pEC50 [2]: inactive; Efficacy [3]: 43%; Efficacy [4]: 29%; EC50 (Ecdysone receptor [5]): 0.162 µM

Which EC50 (Ecdysone receptor [6]) does the source give for `CC1CC(Nc2ccc(F)cc2)c2cc(F)ccc2N1C(=O)c1ccc(Cl)cc1` (stereo not drawn) here?
Its EC50 is 0.646 µM.

And the EC50 (Ecdysone receptor [1])?
The EC50 was > 100 µM.

What about the Efficacy [7] of the same compound?
The Efficacy was 70%.

And the Efficacy [3]?
The Efficacy was 12%.

Which results are given for `Cc1ccc(NC2CC(C)N(C(=O)c3ccc(C)cc3)c3ccc(C)cc32)cc1` (stereo not drawn)?
EC50 (Ecdysone receptor [6]): 5.01 µM; EC50 (Ecdysone receptor [1]): > 10 µM; Efficacy [7]: 26%; Efficacy [8]: 11%; pEC50 [9]: inactive

What does the source list for `Cc1cc(C)cc(C(=O)C2(NC(=O)c3ccc4c(c3C)CCCO4)CCCCC2)c1`?
EC50 (Ecdysone receptor [1]): > 1.32 µM; Efficacy [10]: 37%

What does the source list for `CC(C)(C)N(NC(=O)c1c(F)cccc1F)C(=O)c1ccccc1Cl`?
EC50 (Ecdysone receptor [11]): > 100 µM; Efficacy [3]: 23%; Efficacy [4]: 35%

With `CCOc1ccccc1C(=O)N(NC(=O)c1ccc(CC)cc1)C(C)(C)C` as the compound, how does the EC50 (Ecdysone receptor [1]) read?
Its EC50 is > 50.1 µM.

And the Efficacy [12]?
The Efficacy was 2%.

With `CCc1ccc(C(=O)NN(C(=O)c2cc(C)cc(C)c2)C(C)(C)C)cc1` [TEBUFENOZIDE] as the compound, how does the EC50 (Ecdysone receptor [1]) read?
The EC50 was 6.61 µM.

What about the Activity [13] of the same compound?
Its Activity is “Non-toxic”.

And the EC50 (Ecdysone receptor [14])?
Its EC50 is 0.525 µM.

What about the Efficacy [8] of the same compound?
Its Efficacy is 52%.

And the EC50 (Ecdysone receptor [5])?
The EC50 was 0.00123 µM.

Which Efficacy [15] does the source give for `CC(C)(C)N(NC(=O)c1ccc(Br)cc1)C(=O)c1ccccc1Cl` here?
The Efficacy was 56%.

What about the EC50 (Ecdysone receptor [1]) of the same compound?
The EC50 was 2.82 µM.

What about the EC50 (Ecdysone receptor [11]) of the same compound?
Its EC50 is 6.92 µM.

What about the Efficacy [16] of the same compound?
Its Efficacy is 68%.

And the EC50 (Ecdysone receptor [5])?
The EC50 was 0.0339 µM.

What does the source list for `Cc1ccc(NC2CC(C)N(C(=O)c3ccc(Cl)cc3)c3ccc(C)cc32)cc1` (stereo not drawn)?
EC50 (Ecdysone receptor [6]): 2.14 µM; EC50 (Ecdysone receptor [1]): > 10 µM; Efficacy [7]: 39%; Efficacy [8]: 9%; pEC50 [9]: inactive

Which EC50 (Ecdysone receptor [1]) does the source give for `CC(C)(C)N(NC(=O)c1ccc(I)cc1)C(=O)c1ccccc1Cl` here?
The EC50 was 7.08 µM.

What about the Efficacy [16] of the same compound?
Its Efficacy is 53%.

And the EC50 (Ecdysone receptor [5])?
The EC50 was 0.00759 µM.

For `CC(=O)c1ccc(C(=O)NN(C(=O)c2ccccc2Cl)C(C)(C)C)cc1`, which Efficacy [15] is on record?
The Efficacy was 3%.

And the EC50 (Ecdysone receptor [11])?
Its EC50 is > 100 µM.

And the Efficacy [3]?
Its Efficacy is 7%.

For `COc1cccc(C(=O)NN(C(=O)c2cc(C)cc(C)c2)C(C)(C)C)c1C` [METHOXYFENOZIDE], which Activity [17] is on record?
The Activity was “Active”.

What about the EC50 (Ecdysone receptor [1]) of the same compound?
The EC50 was 16.6 µM.

And the Activity [13]?
Its Activity is “Non-toxic”.

What about the Activity [18] of the same compound?
The Activity was “Active”.

And the Efficacy [3]?
The Efficacy was 66%.

And the EC50 (Ecdysone receptor [5])?
Its EC50 is 0.00603 µM.
